# Measured values from patent publication US10022360B2, “Polymeric nanoparticles and methods of making and using same” (priority 2014, dated 2018).
# Legend:
# in vivo = details: mouse
# Protocol: NPs from Example 4 were prepared on a larger scale for MTD studies.
# [1] = Blood glucose after acute treatment, non-tumor bearing SCID mice; format: in vivo; details: FIG. 10
# [2] = format: in vivo; details: BT-474 xenografts in SCID mice, FIG. 15
structure (smiles),measurement,setting,value
"NC1(c2ccc(-c3nc4ccn5c(=O)[nH]nc5c4cc3-c3ccccc3)cc2)CCC1 [COMPOUND A, 8-[4-(1-amino-cyclobutyl)phenyl]-9-phenyl-2H-[1,2,4]-triazolo-[3,4-f][1,6]-naphthyridin-3-one]",MTD,in vivo,480 mg/kg
same,hyperglycemia following acute treatment,[1],display hyperglycemia
same,MTD dosing / toxicity (percent survival),[2],exhibited toxicity
